Assay results: PubChem BioAssay AID179 (DTP/NCI, 2004)
“And” between values parts separate entries of the source, which are not always exact repeats. Equal values may be shown once. The source made the active and inactive calls.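 How the source made its calls: active means compounds giving half or more protection of infected cells from virus-caused growth loss, again on retest; inactive means the rest.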

Tested on: CEM cells HIV-1 protection, formazan growth assay
Test: NCI AIDS Antiviral Assay
Details: for IC50: measured here: growth of uninfected CEM cells
Summary of the method: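 Screen of anti-HIV-1 activity in human CEM cells using a formazan-based growth measurement at five drug concentrations. Hits with 50% or greater protection were repeated, and confirmation required reproducible complete protection.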

CCC1(c2cccc(C)c2)Oc2ccccc2-n2cccc2C1=O (stereo not given)
EC50: 0.537 µM
IC50: 126 µM

CC1(O)CC2C(CC1SC1CC3C(CC1(C)O)C3(C)C)C2(C)C (stereo not given)
EC50: > 200 µM
IC50: > 200 µM

Cc1ccc(NC(Nc2ccc(C)cc2C)=C(/C=C(\Cl)[N+](=O)[O-])[N+](=O)[O-])c(C)c1
EC50: > 200 µM
IC50: 2.51 µM

Cc1ccc(CC(Cc2ccc(C)cc2C(=O)O)C(=O)O)cc1 (stereo not given)
EC50: > 200 µM
IC50: > 200 µM

O=Cc1ccc(-c2ccc(S(=O)(=O)O)cc2)o1
EC50: > 200 µM
IC50: 93.3 µM

O=[N+]([O-])c1c(F)c(F)c2c(c1F)Nc1ccccc1S2
EC50: > 200 µM
IC50: 3.02 µM

N=c1c2ccccc2c2ccccc2n1O
EC50: > 200 µM
IC50: > 100 µM

COc1cc2nc(NCCCCCNC(=O)c3ccco3)nc(N)c2cc1OC
EC50: > 575 µM
IC50: 35.5 µM

CC12CCC(=O)N1c1ccccc1N2 (stereo not given)
EC50: > 501 µM
IC50: > 501 µM

O=C1COC(C(=O)c2ccccc2)C(=O)N1 (stereo not given)
EC50: > 117 µM
IC50: > 117 µM

COc1ccc(C(c2cc(OC)c(OC)c(OC)c2)N2C(=O)CCC2C(=O)O)cc1 (stereo not given)
EC50: > 200 µM
IC50: 33.1 µM

COc1ccc(NC(=O)Nc2onc(C)c2C)c(Cl)c1
EC50: > 191 µM
IC50: 151 µM

S=c1[nH]c2ccccc2c(=S)n1CN1CCCCC1
EC50: > 200 µM
IC50: 110 µM

CC(=O)Nc1cc(NC(C)=O)c(N=O)c(NC(C)=O)n1
outcome: inactive

O=C1C2=C(/C=C/c3ccccc3)OCCC2=NN1c1ccccc1
EC50: > 42.7 µM
IC50: 7.59 µM

CCOC(=O)c1[nH]n(-c2ccccc2)c(=O)c1C=NC(=S)C(N)=S
EC50: > 200 µM
IC50: 33.9 µM

CC12CC3CC(C)(C1)CC(CN=C(N)CS)(C3)C2
EC50: > 200 µM
IC50: 31.6 µM

C=CCC(CC(CC=C)C(=O)O)C(=O)O (stereo not given)
EC50: > 1170 µM
IC50: > 1170 µM

CCNc1cc2oc(=O)cc(C(F)(F)F)c2cc1C
EC50: > 13.8 µM
IC50: > 13.8 µM

CCCCC(C)CCC(=O)C1=C(O)C(CC(=O)O)OC1=O (stereo not given)
EC50: > 83.2 µM
IC50: > 83.2 µM

COc1cc(CC(C)=O)cc(OC)c1
EC50: > 200 µM
IC50: 95.5 µM

O=C1CCC2(CCCCC2)N1
EC50: > 200 µM
IC50: > 200 µM

NC(N)=NC(P(=O)(O)O)P(=O)(O)O
EC50: > 200 µM
IC50: > 200 µM

O=C(O)CCc1ccc(O)c(O)c1
outcome: inactive

CCOC(=O)CC1(C(=O)OCC)c2[nH]c3ccccc3c2CCN1Cc1ccccc1 (stereo not given)
EC50: > 69.2 µM
IC50: 17.4 µM

CC(C)(C)OC(=O)NC(Cc1ccc(OCc2ccccc2)cn1)C(=O)O (stereo not given)
EC50: > 200 µM
IC50: > 200 µM

O=C(/C=C(\Cl)c1c[nH]c(=O)[nH]c1=O)c1ccccc1
outcome: inactive

CC(=O)NNc1nc(C)c(C(=O)NNC(=O)C(=O)Nc2ccc(C)c(C)c2)s1
EC50: > 170 µM
IC50: 31.6 µM

CN1C(=O)CC(CC(=O)C2CCCCC2=O)CC1=O (stereo not given)
EC50: > 200 µM
IC50: > 200 µM

CC(=O)OC(C)(C)/C=C/C(=O)[C@](C)(O)[C@H]1[C@H](O)C[C@@]2(C)[C@@H]3CC=C4[C@@H](C[C@H](O)C(=O)C4(C)C)[C@]3(C)C(=O)C[C@]12C
EC50: > 0.2 µM
IC50: 0.00955 µM

OCC1C2CCC3(OCCO3)C12 (stereo not given)
EC50: > 200 µM
IC50: > 200 µM

N#Cc1cc2ccccc2nc1SN
outcome: inactive

COc1ccc(C2=C(OC(C)=O)c3cccn3-c3ccc(Cl)cc3S2)cc1
EC50: > 200 µM
IC50: 12.3 µM

CN1C(=O)C(/C=N/NC(=O)c2cccnc2)C(N)N(C)C1=O (stereo not given)
EC50: > 200 µM
IC50: > 200 µM

CC(=O)NNc1nc(C)c(C(=O)NNC(=O)C(=O)Nc2c(C)cccc2C(C)(C)C)s1
EC50: > 151 µM
IC50: 26.3 µM

O=C(CNc1ccccn1)Nn1cnc2ccc(S(=O)(=O)Nc3ccccn3)cc2c1=O
EC50: > 200 µM
IC50: > 200 µM

COC(=O)[C@@H]1O[C@]12C(CO[Si](C)(C)C(C)(C)C)OC(n1ccc(=O)[nH]c1=O)C2O[Si](C)(C)C(C)(C)C (stereo not given in full)
EC50: > 200 µM
IC50: 9.77 µM

O=C1OC(CC(=O)c2ccc(Cl)cc2Cl)C(Cl)=C1Cl (stereo not given)
EC50: > 148 µM
IC50: 53.7 µM

NC(=O)c1c([N+](=O)[O-])ncn1C1OC(CO)C(F)C1O (stereo not given)
EC50: > 200 µM
IC50: > 200 µM

Cc1ccc(OP2(=O)Nc3ccccc3S2)cc1 (stereo not given)
EC50: > 468 µM
IC50: 25.7 µM

CC(C)(C)[Si](C)(C)OCC1OC(n2ccc(=O)[nH]c2=O)CC1(O)C/C=N/O (stereo not given)
EC50: > 200 µM
IC50: 12.6 µM

O=S(=O)(Cc1ccccc1)CS(=O)(=O)Cc1ccccc1
EC50: > 77.6 µM
IC50: > 77.6 µM

Oc1[nH]c2ccccc2c1N=NC(=S)Nc1ccccc1Cl
EC50: > 200 µM
IC50: 1.51 µM

Cc1nc2cncnc2n(CCN2CCOCC2)c1=O
EC50: > 200 µM
IC50: 46.8 µM

COC(=O)C1(C)OC(C)=NC1(C(=O)OC)C(=O)OC (stereo not given)
EC50: > 200 µM
IC50: > 200 µM

O=C(Nc1ccc(Cl)cc1C(=O)O)c1ccc([N+](=O)[O-])cc1
outcome: inactive

CN(C)c1ccc(/C=C2\C(=O)Nc3ccccc32)cc1
EC50: > 10.2 µM
IC50: > 10.2 µM

COC(=O)[C@@H]1CC2(CCOCc3ccccc3)C=CCN3CC[C@@]1(c1ccccc1NC(=O)C(C)(C)C)C32 (stereo not given in full)
EC50: > 126 µM
IC50: > 126 µM

CCCCCCCCCCCCCCCCOCC(COC1OC(COC(C)=O)C(OC(C)=O)C(OC(C)=O)C1OC(C)=O)OCCCCCCCCCCCCCCCC (stereo not given)
EC50: > 29.5 µM
IC50: > 29.5 µM

COc1cc2c(c3c1C(=O)[C@H](C)[C@@H](C)O3)C=CC(C)(C)O2
EC50: > 200 µM
IC50: 50.1 µM

CCOC(=O)/C(=C\c1ccccc1OC)P(=O)(OCC)OCC
EC50: > 724 µM
IC50: 13.2 µM

CC(NCc1c(O)ccc2c(-c3ccccc3)cc(=O)oc12)C(=O)O (stereo not given)
EC50: > 200 µM
IC50: > 200 µM

NC1CC(=O)c2c(Br)csc21 (stereo not given)
EC50: > 200 µM
IC50: 50.1 µM

OCc1ccc2c(c1)CC1(C2)Cc2cc3c(cc2C1)CCC3
EC50: > 200 µM
IC50: 0.977 µM

C/C(=N\[N+](C)(C)C)c1ccc(C)c(C)c1
EC50: > 200 µM
IC50: 102 µM

CCOC(=O)C(=O)/C(=C/N1C(=O)CC(=O)NC1=S)C(=O)OCC
EC50: > 200 µM
IC50: > 200 µM

Nc1nc(NC2CC2)c2ncn(C3C=CC(CO)CC3)c2n1 (stereo not given)
EC50: > 200 µM
IC50: > 200 µM

CC1=C2C3OC(=O)C(C)C3C(O)C[C@@]2(C)C(=O)CC1 (stereo not given in full)
outcome: inactive

Cc1cc(C)c(C(=O)C(C)C(c2ccccc2)c2ccc(Cl)cc2)c(C)c1 (stereo not given)
EC50: > 26.3 µM
IC50: > 26.3 µM

O=c1[nH]c2ccccc2n1C1CCN(CCOc2ccccc2)CC1
EC50: > 200 µM
IC50: 23.4 µM

O=C(CSc1nnc(-c2ccc(N=Cc3ccc(Cl)cc3)cc2)o1)Nc1ccccc1Cl
EC50: > 269 µM
IC50: > 269 µM

CC1C/C(=C\c2ccc(O)c(O)c2)C(=O)/C(=C/c2ccc(O)c(O)c2)C1 (stereo not given)
EC50: > 200 µM
IC50: 10 µM

OC1CSCCCSCCSCCCSC1
EC50: > 17.4 µM
IC50: > 17.4 µM

COC(=O)C(C(=O)C(=O)Nc1ccc(C)cc1)c1nc2ccc([N+](=O)[O-])cc2[nH]c1=O (stereo not given)
EC50: > 44.7 µM
IC50: > 44.7 µM

Cc1ccc(S(=O)(=O)c2c(O)c3ccc(O)c(C)c3oc2=O)cc1
EC50: > 200 µM
IC50: > 200 µM

NC(=O)c1ccc(NCC2=CC(=O)C=CC2=O)cc1
EC50: > 40.7 µM
IC50: 17.4 µM

CC(C)(C)C(=CS(=O)/N=C/c1ccccc1)C(C)(C)C (stereo not given)
EC50: > 24.5 µM
IC50: > 24.5 µM

CCCCc1ccc(-n2sc3ncc(C)cc3c2=O)cc1
EC50: 1.23 µM
IC50: 21.9 µM

CC(=O)N(NC(=O)P(=O)(OC(C)C)OC(C)C)c1ccc([N+](=O)[O-])cc1
EC50: > 129 µM
IC50: > 129 µM

COc1cccc(/C=N\N=C\c2cccc(OC)c2O)c1O
EC50: > 200 µM
IC50: 66.1 µM

O=c1oc2ccccc2n1CCN1CCCCC1
EC50: > 200 µM
IC50: > 200 µM

COc1cc(C2C3=C(COC3=O)OC(C)(C)Oc3cc4c(cc32)OCO4)cc(OC)c1OC (stereo not given)
EC50: > 2 µM
IC50: 0.355 µM

COC(=O)CCC(=O)c1ccc2c(c1)CC1(Cc3ccccc3C1)C2
EC50: > 200 µM
IC50: 46.8 µM

O=C(Nc1ccc2cc(S(=O)(=O)O)ccc2c1)c1ccc(N=Nc2cc(S(=O)(=O)O)c3ccccc3c2O)cc1
EC50: > 50.1 µM
IC50: > 50.1 µM

COc1ccc(N=Nc2c(N)nn3cc4c(nc23)CCC4)cc1
outcome: inactive

COc1ccc2cc1Oc1ccc(cc1)C[C@@H]1c3cc(c(OC)cc3CCN1C)Oc1c(OC)c(OC)cc3c1[C@@H](C2)N(C)CC3
outcome: inactive

O=C(O)c1c(Cl)c(Cl)c(Cl)c(Cl)c1-c1c2ccc(=O)cc-2oc2cc(O)ccc12
EC50: 6.46 µM
IC50: 29.5 µM

COc1ccc2c(CCNC(C)=O)c(C(C)=O)[nH]c2c1
outcome: inactive

CC(=O)OC(OC(C)=O)n1cc(C=O)c2ccccc21
EC50: > 200 µM
IC50: > 200 µM

O=c1[nH]c(=O)n(C2CC(O)C(CO)O2)cc1S (stereo not given)
outcome: inactive

Nc1ccc(/C=C/c2ccc(NCc3c(O)cc(O)cc3C(=O)O)cc2S(=O)(=O)O)c(S(=O)(=O)O)c1
EC50: 107 µM
IC50: > 200 µM

O=C(N/C(=C\c1ccc([N+](=O)[O-])cc1)c1nc2[nH]c(=S)[nH]c(=O)c2[nH]1)c1ccccc1
outcome: inactive

CCOC(=O)C1(C(=O)OCC)C[C@]23OCCC(=O)[C@H]2[C@H]2C(=O)OC(C)(C)O[C@]23C1
EC50: > 200 µM
IC50: > 200 µM

CCN(CC)CCOc1ccc(/C=C(\C#N)c2ccc(OCCN(CC)CC)cc2)cc1
EC50: > 53.7 µM
IC50: 3.72 µM and 6.92 µM

C1OC1[C@@H]1CC[C@@H]([C@@H]2CC[C@@H]([C@H]3CO3)O2)O1 (stereo not given in full)
outcome: inactive
IC50: 39.8 µM

COC(=O)c1cc(C(=CCCC(C)[C@H]2CCC3C4CC[C@@H]5CC(F)(F)CC[C@]5(C)C4CC[C@@]32C)c2cc(Cl)c(OC)c(C(=O)OC)c2)cc(Cl)c1OC (stereo not given in full)
EC50: > 100 µM
IC50: > 100 µM

COC(=O)C1=C(C(=O)NNc2ccccc2)N(c2cccnc2Cl)C(c2ccccc2)=CC1c1ccccc1 (stereo not given)
EC50: > 200 µM
IC50: 22.9 µM

CCCCN(CCCC)C(=O)COc1cc2c(O)c3c(O)c(C)c4c(c13)C(=O)C(C)(O/C=C/C(OC)C(C)C(OC(C)=O)C(C)C(O)C(C)C(O)C(C)/C=C/C=C(\C)C(=O)N2)O4 (stereo not given)
EC50: > 91.2 µM
IC50: 11 µM
